Reference: US20250230188A1, “METAGENOME-GUIDED BIOSYNTHESIS AND COMPOUNDS AND METHODS OF USE THEREOF” (The Rockefeller University, priority 2022, published 2025)
Converted amounts (≈) assume the structure as drawn. “Also recorded” adds a separate entry of the source. Where two headings read alike, the source gives them in different places.

Key:
S. aureus SH1000 = test: Syn-BNP MIC against ESKAPE pathogens: S. aureus; assay type: cell-based, Staphylococcus aureus; conditions: for MIC: S. aureus SH1000, Gram-positive
Procedure: (§1) All syn-BNPs, as well as the parent antibiotic albicidin were assayed for antimicrobial activity against the ESKAPE pathogens (Enterococcus faecium, Staphylococcus aureus, Klebsiella pneumoniae, Acinetobacter baumannii, Pseudomonas aeruginosa, and Enterobacter species), which are a collection of bacteria most commonly associated with antibacterial resistant nosocomial infections. […]

E. cloacae 13047 = test: Syn-BNP MIC against ESKAPE pathogens: E. cloacae; assay type: cell-based, Enterobacter cloacae; conditions: E. cloacae 13047, Gram-negative
Procedure: (§2) All syn-BNPs, as well as the parent antibiotic albicidin were assayed for antimicrobial activity against the ESKAPE pathogens (Enterococcus faecium, Staphylococcus aureus, Klebsiella pneumoniae, Acinetobacter baumannii, Pseudomonas aeruginosa, and Enterobacter species), which are a collection of bacteria most commonly associated with antibacterial resistant nosocomial infections.

E. coli 25922 = test: Syn-BNP MIC against E. coli; assay type: cell-based, Escherichia coli; conditions: E. coli 25922, Gram-negative
P. aeruginosa = test: Syn-BNP MIC against ESKAPE pathogens: P. aeruginosa; assay type: cell-based, Pseudomonas aeruginosa; conditions: Gram-negative
Procedure: as §2

K. pneumoniae 10031 = test: Syn-BNP MIC against ESKAPE pathogens: K. pneumoniae; assay type: cell-based, Klebsiella pneumoniae; conditions: for MIC: K. pneumoniae 10031, Gram-negative
Procedure: as §2

A. baumannii = test: Syn-BNP MIC against ESKAPE pathogens: A. baumannii; assay type: cell-based, Acinetobacter baumannii; conditions: for MIC: Gram-negative
Procedure: as §2

[1] = system: E. coli-BL21 (pET28c-AlbD); assay type: cell-based, Escherichia coli; conditions: for Fold increase in MIC: AlbD expressing strain versus empty vector strain; for MIC: E. coli-BL21 (pET28c-AlbD); for susceptibility to AlbD encoded resistance: E. coli expressing AlbD versus empty vector
Source text: (§3) As circumventing common antibiotic resistance mechanisms was likely to play a key role in the natural selection of antibiotic congeners, the present studies investigated whether some of the congeners evolved to evade AlbD-mediated cleavage. To determine the susceptibility of the herein described BGC-inspired analogs to AlbD encoded resistance, the MIC of each syn-BNP against E. coli engineered to express AlbD was compared to that of E. coli containing an empty expression vector.

E. coli-BL21 (pET28c) = assay type: cell-based, Escherichia coli; conditions: empty vector
Source text: as §3

E. faecium com15 = test: Syn-BNP MIC against ESKAPE pathogens: E. faecium; assay type: cell-based, Enterococcus faecium; conditions: for MIC: E. faecium com15, Gram-positive
Procedure: as §1

DNA gyrase = DNA gyrase (Escherichia coli, UniProt P0AES4+P0AES6); conditions: FIG. 9
Source text: Further studies are focused on an investigation of other mutations via a clinical introduction of this class of antibiotics.

| MIC (S. aureus SH1000; Staphylococcus aureus, read-out: MIC) [µg/mL] | MIC (E. coli 25922; Escherichia coli, read-out: MIC) [µg/mL] | MIC (E. faecium com15; Enterococcus faecium, read-out: MIC) [µg/mL] | Structure (SMILES) | MIC (S. aureus SH1000) [µg/mL] | MIC (E. cloacae 13047) [µg/mL] | MIC (E. coli 25922) [µg/mL] | MIC (P. aeruginosa) [µg/mL] | MIC (K. pneumoniae 10031) [µg/mL] | MIC (A. baumannii) [µg/mL] | Fold increase in MIC [1] [fold] | MIC [1] [µg/mL] | MIC (E. coli-BL21 (pET28c)) [µg/mL] | MIC (E. faecium com15) [µg/mL] | susceptibility to AlbD encoded resistance [1] | affinity for DNA gyrase (DNA gyrase) | fold more potent than albicidin (S. aureus SH1000; S. aureus) [fold] | fold more potent than albicidin (K. pneumoniae 10031; K. pneumoniae) [fold] | MIC compared with albicidin (A. baumannii) | fold more potent than albicidin (E. faecium com15; E. faecium) [fold] |
| --- | --- | --- | --- | --- | --- | --- | --- | --- | --- | --- | --- | --- | --- | --- | --- | --- | --- | --- | --- |
| – | – | – | COc1c(NC(=O)c2ccc(NC(=O)c3ccc(NC(=O)[C@H](CC#N)NC(=O)c4ccc(NC(=O)/C(C)=C/c5ccc(O)cc5)cc4)cc3)c(OC)c2O)ccc(C(=O)O)c1O [Albicidin, reference compound] | 0.5 (≈ 0.593 µM) | 8 (≈ 9.49 µM) | 0.015 (≈ 0.0178 µM) | 1 (≈ 1.19 µM) | >8 | 0.125 (≈ 0.148 µM) | 131 | 0.25 (≈ 0.297 µM) | 0.0019 (≈ 0.00225 µM) | 2 (≈ 2.37 µM) | – | – | – | – | – | – |
| – | – | – | COc1c(NC(=O)/C(C)=C/c2ccc(O)cc2)ccc(C(=O)N[C@@H](CC#N)C(=O)Nc2ccc(C(=O)Nc3ccc(C(=O)Nc4ccc(C(=O)O)cc4)c(O)c3OC)c(O)c2OC)c1O [PABA95-2] | – | – | – | – | – | – | 8 | 0.5 (≈ 0.563 µM) | 0.06 (≈ 0.0675 µM) | – | not susceptible to AlbD encoded resistance | – | – | – | – | – |
| 0.5 (≈ 1.51 µM) | 0.0075 (≈ 0.0226 µM) | 0.5 (≈ 1.51 µM) | O=C(O)c1cn(C2CC2)c2cc(N3CCNCC3)c(F)cc2c1=O [Ciprofloxacin, reference compound] | – | – | – | – | – | – | – | – | – | – | – | – | – | – | – | – |
| – | – | – | COc1c(NC(=O)c2ccc(NC(=O)[C@H](CC#N)NC(=O)c3ccc(NC(=O)/C(C)=C/c4ccc(O)cc4)cc3)c(OC)c2O)ccc(C(=O)Nc2ccc(C(=O)O)cc2)c1O [PABA34] | >8 | 2 (≈ 2.37 µM) | – | 2 (≈ 2.37 µM) | >8 | 2 (≈ 2.37 µM) | 4 | 0.03 (≈ 0.0356 µM) | 0.0075 (≈ 0.0089 µM) | >8 | resistant to proteolytic cleavage by AlbD; also recorded: not susceptible to AlbD encoded resistance | retained a high affinity for DNA gyrase | – | – | – | – |
| – | – | – | COc1c(NC(=O)/C(C)=C/c2ccc(O)cc2)ccc(C(=O)N[C@@H](CC#N)C(=O)Nc2ccc(C(=O)Nc3ccc(C(=O)Nc4ccc(C(=O)O)cc4)c(O)c3OC)cc2)c1O [PABA95] | 4 (≈ 4.75 µM) | 8 (≈ 9.49 µM) | 0.25 (≈ 0.297 µM) | 8 (≈ 9.49 µM) | >8 | 0.5 (≈ 0.593 µM) | 133 | 2 (≈ 2.37 µM) | 0.015 (≈ 0.0178 µM) | 8 (≈ 9.49 µM) | – | – | – | – | – | – |
| – | – | – | CO[C@@H](C(N)=O)[C@H](NC(=O)c1ccc(NC(=O)[C@@H](N)Cc2ccccc2)cc1)C(=O)Nc1ccc(C(=O)Nc2ccc(C(=O)Nc3ccc(C(=O)O)c(O)c3OC(C)C)c(O)c2OC(C)C)cc1 [PABA48] | 0.25 (≈ 0.268 µM) | >8 | 0.125 (≈ 0.134 µM) | >8 | 0.125 (≈ 0.134 µM) | 0.125 (≈ 0.134 µM) | >133 | > 8 | 0.06 (≈ 0.0642 µM) | 0.125 (≈ 0.134 µM) | – | – | 2 | > 64 | same MIC as albicidin | 16 |
| – | – | – | CO[C@@H](C(N)=O)[C@H](NC(=O)c1ccc(NC(=O)[C@@H](N)Cc2ccc(O)cc2)cc1)C(=O)Nc1ccc(C(=O)Nc2ccc(C(=O)Nc3ccc(C(=O)O)c(O)c3OC(C)C)c(O)c2OC(C)C)cc1 [PABA70] | 1 (≈ 1.05 µM) | >8 | 2 (≈ 2.11 µM) | >8 | 1 (≈ 1.05 µM) | 4 (≈ 4.21 µM) | >128 | > 64 | 0.5 (≈ 0.526 µM) | 1 (≈ 1.05 µM) | – | – | – | – | – | – |
| – | – | – | CO[C@@H](C(N)=O)[C@H](NC(=O)c1ccc(NC(=O)[C@@H](N)Cc2ccc(O)cc2)cc1)C(=O)Nc1ccc(C(=O)Nc2ccc(C(=O)Nc3ccc(C(=O)O)cc3)c(O)c2OC(C)C)cc1 [PABA57] | >8 | >8 | 2 (≈ 2.28 µM) | >8 | 1 (≈ 1.14 µM) | >8 | >128 | > 64 | 0.5 (≈ 0.571 µM) | >8 | – | – | – | – | – | – |
